Source: patent publication EP2433619A1, “Novel antitumoral agent and its therapeutic uses” (Intsel Chimos, priority 2010, dated 2012)
Where “and” joins values, the source holds several entries; their conditions need not be identical. Identical values can stand only once. Entries after “also recorded” stand apart in the source; their conditions may differ.

Assays:
tumour astrocyte lines = conditions: lines from primary cultures of astrocytes of newborn rat brain; cited from earlier work
glioma C6 Cells = assay: single stereotactic cerebral intra-ventricular injection in rats implanted with glioma C6 cells; assay type: in vivo
[1] = set-up: species or system rats and mice; conditions: in vivo
[2] = test system: Advanced glioblastoma, Grade III o IV astrocytoma, Anaplastic oligodendroglioma; assay: compassionate clinical trial, stereotactic administration of liposomal form; assay type: in vivo, patients; conditions: 1 to 3 doses, total 0.05 to 3.2mg/patient
[3] = stability of active principle in the finished product to autoclaving; assay type: physicochemical; conditions: for Content in oxysterol: samples PE1-PE3, listed as oxysterol
Experimental: A batch has been subjected to a dosage before and after autoclaving 20 minutes at 121 °C, to determine whether oxysterol also resists to autoclaving. Three samples have been analysed :
The autoclaving yield is calculated in the following manner Yield autoclaving: Content oxysterol after autoclaving; Content oxysterol before autoclaving x 100 [formula]

[4] = test system: rat brain C6 glioblastoma cells; assay: intratumoral injection of liposomes in rats with intracerebral implantation of C6 glial cells (earlier studies); assay type: in vivo; conditions: compared with animals treated with liposomes only
Excerpt: The effect of 7-β-hydroxy cholesteryl-3-β-oleate-ester on rat brain C6 glioblastoma cells was studied (Werthle M & All).
The ester of 7-β-hydroxy-cholesterol, the 7-β-hydroxy cholesteryl-3-β-oleate-ester (7-β-OHCOE) belongs to the oxysterols.

[5] = test system: rat brain C6 glioblastoma cells; conditions: injection of liposomes containing the ester vs liposomes without oxysterol (Werthle M & All); cited from earlier work
[6] = stability of Oxysterol solution to autoclave sterilisation; assay type: physicochemical
Experimental: A solution of 5 mg Oxysterol in 5 ml of a mixture Acetonitrile / isopropanol (44/56 v/v) is prepared then sterilized in the autoclave for 20 min at 121°C. The solution is analysed according to a […] method of oxysterol before and after autoclaving. The solution of oxysterol is subjected to a second autoclaving for 30minutes at 121°C. The areas of the peaks of oxysterol are determined and the yield after autoclaving is calculated in the following manner Yield: Area of oxysterol after autoclaving; Area of oxysterol before autoclaving x 100 [formula]

[7] = after autoclaving 20 minutes at 121 °C
[8] = 2 autoclavings, second for 30 minutes at 121°C

Q: Which “lethal effect / cytotoxicity” value (tumour astrocyte lines) does the source give for `CC(C)CCC[C@@H](C)[C@H]1CC[C@H]2[C@@H]3[C@@H](O)C=C4C[C@@H](O)CC[C@]4(C)[C@H]3CC[C@]12C` [7-β-OH-CH, 7 beta-hydroxy-cholesterol] here?
A: Its value is “lethal effect”.

Q: With `CCCCCCCC/C=C\CCCCCCCC(=O)O[C@H]1CC[C@@]2(C)C(=C[C@H](O)[C@H]3[C@@H]4CC[C@H]([C@H](C)CCCC(C)C)[C@@]4(C)CC[C@@H]32)C1` [7-β-OHCOE, 7-β-hydroxy cholesteryl-3-β-oleate-ester] as the molecule, how does the survival (glioma C6 Cells; injection of liposomal form in experimental animals) read?
A: The survival was “did affect neither survival nor body weight”.

Q: And the “total tumoral volume, mean value” (glioma C6 Cells; liposomal, injected 3 days after implantation, sacrificed 10 days after treatment, reduced from 4.4mm3)?
A: Its value is 0.8 mm3.

Q: And the body weight (glioma C6 Cells; rat, in vivo)?
A: The body weight was “did affect neither survival nor body weight”.

Q: And the metabolism [1]?
A: The metabolism was “metabolized to cholesterol within the cerebral parenchyma”.

Q: What about the noxious effects [1] of the same molecule?
A: The noxious effects was “no noxious effects”.

Q: What about the “partial or total remission observed” value ([2]; 11 patients included) of the same molecule?
A: Its value is 3 patients.

Q: And the side effects ([2]; 11 patients)?
A: Its side effects is “No significant side effects were observed”.

Q: And the “Content in oxysterol, Average” value [3, 7]?
A: The value was 1,43 mg/g.

Q: And the Content in oxysterol [3, 7]?
A: The Content in oxysterol was 1,42 mg/g and 1,41 mg/g and 1,45 mg/g.

Q: What about the “average yield of autoclaving” value ([3]; autoclaving 20 minutes at 121 °C) of the same molecule?
A: The value was 97,9%.

Q: What about the “Content in oxysterol, Average” value ([3]; before autoclaving) of the same molecule?
A: Its value is 1,46 mg/g.

Q: And the Content in oxysterol ([3]; before autoclaving)?
A: Its Content in oxysterol is 1,45 mg/g and 1,46 mg/g.

Q: What about the tumor growth [4] of the same molecule?
A: Its tumor growth is “significant regression of tumor growth; also recorded: spectacular regression of tumour growth”.

Q: And the tumor volume [5]?
A: The tumor volume was “marked decrease in tumor volume”.

Q: What about the “Area oxysterol after autoclaving” value ([6]; 1 autoclaving, 20 min at 121°C) of the same molecule?
A: The value was 5517,4.

Q: What about the Yield of autoclaving ([6]; 1 autoclaving, 20 min at 121°C) of the same molecule?
A: Its Yield of autoclaving is 100,2%.

Q: What about the “Area oxysterol before autoclaving” value ([6]; 1 autoclaving, 5 mg in 5 ml Acetonitrile / isopropanol (44/56 v/v)) of the same molecule?
A: The value was 5506,5.

Q: What about the “Area oxysterol before autoclaving” value ([6]; 2 autoclavings) of the same molecule?
A: The value was 5666,1.

Q: What about the “Area oxysterol after autoclaving” value [6, 8] of the same molecule?
A: Its value is 5716,3.

Q: And the Yield of autoclaving [6, 8]?
A: Its Yield of autoclaving is 100,9%.
